Here are results for 52 compounds from PubChem BioAssay AID1996.

In brackets after ≈: the same amount, converted by molar mass.

The conditions of this data set: buffer; pH 7.4; 200.0 µM.
For `O=C(c1c(Cl)cccc1Cl)N1CCN(c2ncccn2)CC1`, the kinetic solubility was over 50.6 µg/mL. As to `CCCc1nc2c(sc3nc4c(cc32)COC(C)(C)C4)c(=O)o1`, the solubility (kinetic) is 24.1 µg/mL (≈ 72.9 µM). In turn, `CCOC(=O)c1sc(=NC(=O)c2ccc(OC(C)C)cc2)n(C)c1C` yielded a kinetic solubility of under 0.4 µg/mL. `O=C1C(Nc2ccccc2)=C2CCCC=C2N1c1ccccc1` gave a solubility (kinetic) of 1.8 µg/mL (≈ 5.95 µM). `N#CC1(NC(=O)CSc2nc3ccccc3o2)CCCCC1` gave a kinetic solubility of over 47.3 µg/mL. `CCc1ccc(OC)c(-c2csc(N)n2)c1` came in with a kinetic solubility of over 35.1 µg/mL. `Cc1ccc(CC(=O)NCC2CCCCC2)cc1` gave a kinetic solubility of 9.3 µg/mL (≈ 37.9 µM). With `COc1ccc(NC(=O)c2cc(-c3ccccn3)nc3ccccc23)c(OC)c1`, the solubility (kinetic) worked out at 3.8 µg/mL (≈ 9.86 µM). The compound `CCOC(=O)C1CCN(C(=O)c2cc3ccccc3oc2=O)CC1` returned a solubility (kinetic) of 48.4 µg/mL (≈ 147 µM).

`O=C1c2ccccc2C(=O)N1Cc1ccccc1F` gave a kinetic solubility of 1.5 µg/mL (≈ 5.88 µM). In the case of `O=C(NCc1ccccc1)C(=O)Nc1nc(-c2ccccc2)cs1` it was under 0.2 µg/mL; in that of `COc1ccc2[nH]cc(C(=O)CN3CC(C)CC(C)C3)c2c1` (configuration not stated), over 45.1 µg/mL.

`O=C(CC(Nc1cccc(Cl)c1Cl)C(=O)O)c1ccccc1` (configuration not stated) returned a solubility (kinetic) of 43.2 µg/mL (≈ 128 µM). With `Br.CC(=O)c1sc(Nc2ccc(C)cc2)nc1C` the figure was over 49.1 µg/mL; with `NC1=NC(=O)/C(=C/c2ccc(Br)cc2)S1`, 1.8 µg/mL (≈ 6.36 µM).

The compound `O=C(NCC(c1ccco1)N1CCOCC1)c1ccc(F)cc1` (configuration not stated) showed a kinetic solubility of over 47.8 µg/mL. In the case of `Cc1cc(C)c2c(=O)c(C#N)coc2c1`, the solubility (kinetic) was 26.4 µg/mL (≈ 133 µM). `O=C(NCCN1CCCCC1)Nc1cccc(Cl)c1Cl` gave a solubility (kinetic) of under 0.2 µg/mL.

With `CC(=O)c1cccc(OCC(O)CNCCOc2ccc(C)cc2)c1` (configuration not stated), the solubility (kinetic) stood at 47.6 µg/mL (≈ 139 µM). Consider `CCOC(=O)C1CCCN(CCC(=O)Nc2ccccc2C)C1.Cl` (configuration not stated), for which the kinetic solubility was over 53.2 µg/mL. Compound `COC(=O)c1nc2ccc(N3CCOCC3)cc2c(C)c1C(=O)OC` gave a kinetic solubility of over 51.7 µg/mL. In the case of `Cc1cccc(C(=O)Nc2cccc(C(=O)NC3CCCC3)c2)c1` it was 23.6 µg/mL (≈ 73.2 µM). As to `O=C(Nc1ccc(Cl)cc1F)c1cccc2ccccc12`, the solubility (kinetic) amounted to 1 µg/mL (≈ 3.34 µM). In the case of `CC(=O)c1c(-c2ccccc2)c2cc(Cl)ccc2n(C)c1=O` it was 38.8 µg/mL (≈ 124 µM); in that of `COc1ccc(CNc2ncnc3cc(OC)c(OC)cc23)cc1OC`, over 53.3 µg/mL. Compound `CC(C(=O)NCC1CCCCC1)N(C)Cc1ccc(Cl)cc1` (configuration not stated) came in with a kinetic solubility of 19.5 µg/mL (≈ 60.4 µM). With `CC(C)CN(C(=O)CN(C)CC(=O)Nc1ccccc1C#N)c1c(N)n(CC(C)C)c(=O)[nH]c1=O` the figure was over 72.5 µg/mL; with `CC1(C)Cc2ccccc2-c2nc3n(c(=O)c21)CCCS3`, 0.9 µg/mL (≈ 3.02 µM); with `COc1ccc(C(C#N)=C2C=CC(=NO)C=C2)cc1`, 4.2 µg/mL (≈ 16.6 µM). In turn, `COc1ccc(NC(=O)CN(C)CC(=O)NC2CCCCC2C)cc1` (configuration not stated) displayed a kinetic solubility of 50.2 µg/mL (≈ 144 µM).

Compound `O=S(=O)(Nc1ccccn1)c1cccs1` registered a kinetic solubility of over 36 µg/mL. The compound `O=C(Nc1ccc(N2CCOCC2)cc1N1CCOCC1)c1ccc(F)cc1` gave a solubility (kinetic) of 42.2 µg/mL (≈ 109 µM).

With `O=[N+]([O-])c1cnccc1Nc1ccc(Cl)cc1`, the solubility (kinetic) worked out at 16.6 µg/mL (≈ 66.5 µM).

Take `O=C(OCC(=O)N1CCCCCC1)c1ccc([N+](=O)[O-])cc1Cl`: the kinetic solubility was determined as 50 µg/mL (≈ 147 µM).

The compound `Cc1ccc(O)c(C(=O)c2cnc(/N=C(\N)N(C)C)nc2)c1` registered a kinetic solubility of 41.1 µg/mL (≈ 137 µM). With `CC1CN(C(=O)COC(=O)c2ccc(Cl)c(N)c2)CC(C)O1` (configuration not stated) the figure was over 49 µg/mL; with `Oc1ccc2ccccc2c1C=Nc1ccccc1Br`, under 0.7 µg/mL.

In turn, `COc1ccc(C)cc1NC(=O)Nc1ccc2c(c1)CCC2` gave a kinetic solubility of 0.7 µg/mL (≈ 2.36 µM). Compound `COc1cccc(NC(=O)c2ccc3nc(C)sc3c2)c1` showed a kinetic solubility of 38.7 µg/mL (≈ 130 µM). With `O=C(CNC(=O)c1ccco1)Nc1ccc(OC(F)F)cc1` the figure was over 46.5 µg/mL. `O=S(=O)(Cc1cc(-c2ccccc2)no1)c1ccccc1` came in with a kinetic solubility of 3.4 µg/mL (≈ 11.4 µM). As for `COc1ccc(OCCn2cnc(Cl)c2Cl)cc1`, the kinetic solubility stood at 41.1 µg/mL (≈ 143 µM). In turn, `Cc1ccc2ccc(S(=O)(=O)NCc3ccco3)cc2c1` came in with a solubility (kinetic) of 37 µg/mL (≈ 123 µM). As for `CSc1ccc(CN(C)CC(=O)NCCc2ccccc2)cc1`, the kinetic solubility is over 49.3 µg/mL. `O=C(NCCCN1CCOCC1)c1cc(-c2ccco2)nc2ccccc12` returned a kinetic solubility of 49.6 µg/mL (≈ 136 µM).

`CC(C)c1ccc(NC2CCCN(C(=O)c3ccsc3)C2)cc1` (configuration not stated) registered a solubility (kinetic) of over 49.3 µg/mL. In the case of `Cc1c(C(=O)OCC(=O)NC(=O)NC2CCCCC2)cccc1[N+](=O)[O-]` it was 2.3 µg/mL (≈ 6.33 µM); in that of `Cc1cccc(OCC(=O)NCCCNC(=O)c2cccnc2)c1`, over 49.1 µg/mL; in that of `COc1cc(OC)c(C(=O)OCC(=O)NC2CCCC2)cc1OC`, over 50.6 µg/mL. With `COCCCNC(=S)Nc1ccc(OC(F)F)cc1C` the figure was 45.1 µg/mL (≈ 148 µM).

For the compound `O=C(O)CCCN1C(=O)c2cccc3cccc(c23)C1=O`, the kinetic solubility amounted to 31.8 µg/mL (≈ 112 µM). Compound `Cl.O=C(OCCN1CCCCC1)c1cccc(F)c1` displayed a solubility (kinetic) of over 43.2 µg/mL.
